From patent US20180044304A1, “1,3,4-OXADIAZOLE AND THIADIAZOLE COMPOUNDS AS IMMUNOMODULATORS” (AURIGENE DISCOVERY TECHNOLOGIES LIMITED, priority 2015, published 2018)

What follows are compounds tested against T1, Recombinant mouse PD-L1 (Mus musculus, UniProt Q9EP73) (assay: Rescue of mouse splenocyte proliferation in the presence of recombinant PD-L1 (CFSE proliferation assay)). Details: 100 nM compound; anti-CD3/CD28 stimulated C57 BL6 mouse splenocytes with PD-L1; 72 h; stimulated splenocyte proliferation = 100%; read-out: Percent rescue of splenocyte proliferation (@100 nM compound concentration).
T1 construct: Fc (Fc chimera); purchased R&D Systems 1019-B7-100
Format: cell-based
Method: Rescue of Mouse Splenocyte Proliferation in the Presence of Recombinant PD-L1
Recombinant mouse PD-L1 (rm-PDL-1, cat no: 1019-B7-100; R&D Systems) were used as the source of PD-L1.
Mouse splenocytes harvested from 6-8 weeks old C57 BL6 mice; RPMI 1640 (GIBCO, Cat #11875); DMEM with high glucose (GIBCO, Cat #D6429); Fetal Bovine Serum [Hyclone, Cat #SH30071.03]; Penicillin (10000 unit/mL)-Streptomycin(10,000 μg/mL) Liquid (GIBCO, Cat #15140-122); MEM Sodium Pyruvate solution 100 mM (100×), Liquid (GIBCO, Cat #11360); Nonessential amino acid (GIBCO, Cat #11140); L-Glutamine (GIBCO, Cat #25030); Anti-CD3 antibody (eBiosciences—16-0032); Anti-CD28 antibody (eBiosciences—16-0281); ACK lysis buffer (1 mL) (GIBCO, Cat #-A10492); Histopaque (density-1.083 gm/mL) (SIGMA 10831); Trypan blue solution (SIGMA-T8154); 2 mL Norm Ject Luer Lock syringe-(Sigma 2014-12); 40 μm nylon cell strainer (BD FALCON 35230); Hemacytometer (Bright line-SIGMA Z359629); FACS Buffer (PBS/0.1% BSA): Phosphate Buffered Saline (PBS) pH 7.2 (HiMedia TS1006) with 0.1% Bovine Serum Albumin (BSA) (SIGMA A7050) and sodium azide (SIGMA 08591); 5 mM stock solution of CFSE: CFSE stock solution was prepared by diluting lyophilized CFSE with 180 μl of Dimethyl sulfoxide (DMSO C2H6SO, SIGMA-D-5879) and aliquoted in to tubes for further use. Working concentrations were titrated from 10 μM to 1 μM. (eBioscience-650850-85); 0.05% Trypsin and 0.02% EDTA (SIGMA 59417C); 96-well format ELISA plates (Corning CLS3390); BD FACS caliber (E6016); Recombinant mouse B7-H1/PDL1 Fc Chimera, (rm-PD-L1 cat no: 1019-B7-100).
Splenocytes harvested in a 50 mL falcon tube by mashing mouse spleen in a 40 μm cell strainer were further treated with 1 mL ACK lysis buffer for 5 min at room temperature. After washing with 9 mL of RPMI complete media, cells were re-suspended in 3 mL of 1× PBS in a 15 mL tube. 3 mL of Histopaque was added carefully to the bottom of the tube without disturbing overlaying splenocyte suspension. After centrifuging at 800×g for 20 min at room temperature, the opaque layer of splenocytes was collected carefully without disturbing/mixing the layers. Splenocytes were washed twice with cold 1× PBS followed by total cell counting using Trypan Blue exclusion method and used further for cell based assays.
Splenocytes were cultured in RPMI complete media (RPMI+10% fetal bovine serum+1 mM sodium pyruvate+10,000 units/mL penicillin and 10,000 μg/mL streptomycin) and maintained in a CO2 incubator with 5% CO2 at 37° C.
CFSE is a dye that passively diffuses into cells and binds to intracellular proteins. 1×10^6 cells/mL of harvested splenocytes were treated with 5 μM of CFSE in pre-warmed 1× PBS/0.1% BSA solution for 10 min at 37° C. Excess CFSE was quenched using 5 volumes of ice-cold culture media to the cells and incubated on ice for 5 min. CFSE labelled splenocytes were further given three washes with ice cold complete RPMI media. CFSE labelled 1×10^5 splenocytes added to wells containing either MDA-MB231 cells (1×10^5 cells cultured in high glucose DMEM medium) or recombinant human PDL-1 (100 ng/mL) and test compounds. Splenocytes were stimulated with anti-mouse CD3 and anti-mouse CD28 antibody (1 μg/mL each) and the culture was further incubated for 72 h at 37° C. with 5% CO2. Cells were harvested and washed thrice with ice cold FACS buffer and % proliferation was analysed by flow cytometry with 488 nm excitation and 521 nm emission filters.
Percent splenocyte proliferation was analysed using cell quest FACS program and percent rescue of splenocyte proliferation by compound was estimated after deduction of % background proliferation value and normalising to % stimulated splenocyte proliferation (positive control) as 100%. • Stimulated splenocytes: Splenocytes+anti-CD3/CD28 stimulation • Background proliferation: Splenocytes+anti-CD3/CD28+PD-L1 • Compound proliferation: Splenocytes+anti-CD3/CD28+PD-L1+Compound […]

T1 sequence (Q9EP73 with tags, fused parts or gaps limits assumed): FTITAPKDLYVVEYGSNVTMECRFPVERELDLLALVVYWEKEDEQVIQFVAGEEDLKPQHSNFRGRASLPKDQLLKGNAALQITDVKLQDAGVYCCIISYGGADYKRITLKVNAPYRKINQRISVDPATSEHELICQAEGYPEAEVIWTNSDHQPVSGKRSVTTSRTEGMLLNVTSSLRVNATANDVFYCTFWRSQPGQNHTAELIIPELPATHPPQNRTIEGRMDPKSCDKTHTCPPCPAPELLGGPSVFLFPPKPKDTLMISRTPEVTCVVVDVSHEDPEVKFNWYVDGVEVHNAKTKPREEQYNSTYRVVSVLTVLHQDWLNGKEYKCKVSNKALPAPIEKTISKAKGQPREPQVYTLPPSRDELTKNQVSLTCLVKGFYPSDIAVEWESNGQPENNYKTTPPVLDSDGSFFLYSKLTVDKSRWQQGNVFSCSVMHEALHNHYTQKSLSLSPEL

Row | SMILES | activation at 0.1 µM
1 | NCCCC[C@H](N)c1nnc([C@H](CC(N)=O)NC(=O)N[C@@H](CCC(=O)O)C(=O)O)o1 [Compound 1] | 79%
2 | CCC(C)[C@H](NC(=O)N[C@@H](CCC(=O)O)C(=O)O)c1nnc([C@@H](N)CCC(=O)O)o1 (stereo partly drawn) [Compound 2] | 49%
3 | CC(O)[C@H](NC(=O)N[C@@H](CC(N)=O)c1nnc([C@@H](N)CCCCN)o1)C(=O)O (stereo partly drawn) [Compound 4] | 70%
4 | CCC(C)[C@H](NC(=O)N[C@H](C(=O)O)C(C)O)c1nnc([C@@H](N)CO)o1 (stereo partly drawn) [Compound 5] | 16%
5 | CC(O)[C@H](NC(=O)N[C@@H](CCCCN)c1nnc([C@@H](N)CO)o1)C(=O)O (stereo partly drawn) [Compound 6] | 30%
6 | CC(O)[C@H](NC(=O)N[C@@H](Cc1ccccc1)c1nnc([C@@H](N)CO)o1)C(=O)O (stereo partly drawn) [Compound 7] | 29%
7 | N[C@@H](Cc1ccc(O)cc1)c1nnc([C@@H]2CCCN2C(=O)N[C@@H](Cc2ccc(O)cc2)C(=O)O)o1 [Compound 8] | 60%
8 | CC(O)[C@H](NC(=O)N[C@H](c1nnc([C@@H](N)C(C)O)o1)C(C)O)C(=O)O (stereo partly drawn) [Compound 9] | 29%
9 | NC(=O)C[C@H](NC(=O)N[C@@H](CC(=O)O)C(=O)O)c1nnc([C@@H](N)CO)o1 [Compound 10] | 34%
10 | NCCCC[C@H](N)c1nnc([C@H](CC(N)=O)NC(=O)N[C@@H](CO)C(=O)O)o1 [Compound 11] | 30%
11 | CCC(C)[C@H](N)c1nnc([C@@H](NC(=O)N[C@@H](CCC(=O)O)C(=O)O)C(C)CC)o1 (stereo partly drawn) [Compound 12] | 68%
12 | NCCCC[C@H](NC(=O)N[C@@H](CC(N)=O)c1nnc([C@@H](N)CO)o1)C(=O)O [Compound 13] | 29%
13 | NC(=O)C[C@H](NC(=O)N[C@@H](Cc1ccccc1)C(=O)O)c1nnc([C@@H](N)CO)o1 [Compound 15] | 23%
14 | CC(O)[C@H](NC(=O)N[C@@H](CC(N)=O)c1nnc([C@@H](N)CC(=O)O)o1)C(=O)O (stereo partly drawn) [Compound 16] | 37%
15 | CC(O)[C@H](NC(=O)N[C@@H](CCC(=O)O)c1nnc([C@@H](N)CCCCN)o1)C(=O)O (stereo partly drawn) [Compound 18] | 41%
16 | NC(=O)CC[C@H](NC(=O)N[C@@H](CO)c1nnc([C@@H](N)Cc2c[nH]c3ccccc23)o1)C(=O)O [Compound 20] | 74%
17 | CSC[C@H](N)c1nnc([C@H](CC(N)=O)NC(=O)N[C@H](C(=O)O)C(C)O)o1 (stereo partly drawn) [Compound 24] | 47%
18 | N[C@@H](CO)c1nnc([C@H](Cc2c[nH]c3ccccc23)NC(=O)N[C@@H](CC(=O)O)C(=O)O)o1 [Compound 28] | 66%
